Assay results from US20230001396A1, “COMPOSITIONS AND METHODS FOR CONTROLLED DELIVERY AND PROTECTION OF THERAPEUTIC AGENTS” (Board of Regents, The University of Texas System, priority 2019, published 2023).

Test: Ex vitro study: fluorescence intensity over time in 1×PBS at 37° C.
Format: physicochemical
Details: 1×PBS buffer pH 7.4 and 5.4, 37° C.
Procedure: Ex vitro study: In order to observe the stability of PLGA microparticles in blood ex vitro study was done by the presence of fluorescence intensity after treating the Cy5@ZIF-8@PLGA particles in 1×PBS buffer. The experiment was performed at two different pH conditions. One was pH 7.4 which is the normal blood pH and another was pH 5.4 which mimic the extreme pH condition of blood in different disease states. The fluorescence intensity was measured at different time intervals. For that four types of samples were prepared every time. In two Eppendorf tubes PBS buffer of pH 7.4 and 5.4 were taken and fluorescence intensity was measured and found no peaks. PLGA microparticles were dissolved in 1×PBS buffer pH 7.4 and pH 5.4 with 10 mins centrifugation in Beckman ultra-small centrifuge machine at 3225×g. Only the dissolved clear supernatant was taken and kept in a hot room (37° C.). In another two Eppendorf tubes, Cy5 dye was dissolved in 1×PBS buffer pH 7.4 and 5.4 and kept under the same conditions as the PLGA microparticles to validate the change of fluorescence intensity of Cy5 dye at 37° C. (FIGS. 8A-8D).
It is believed that the PLGA microparticles further preserve the Cy5 dye and act as a sustained release protective shell which can enhance the release period of model drug Cy5 at blood pH.

With `C[N+]1=C(C=CC=CC=C2N(CCCCCC(=O)O)c3ccc(S(=O)(=O)O)cc3C2(C)C)C(C)(C)c2cc(S(=O)(=O)[O-])ccc21` [Cy5 dye, 3H-Indolium, 2-[5-[1-(5-Carboxypentyl)-1,3-dihydro-3,3-dimethyl-5-sulfo-2H-indol-ylidene]-1,3-pentadien-1-yl]-1-methyl-3,3-dimethyl-5-sulfonate] the “change of fluorescence intensity over time” value was “did not show any regular change of fluorescence intensity over time”.
